# Experimental data as given in patent US4401604A, “Process for preparing thiosulfenamide derivatives of N-phosphonomethylglycine triesters” (Monsanto Company, priority 1981, dated 1983).
# Tests used:
# Assay in all cases: Post-emergence herbicidal activity, greenhouse
# Type in all cases: in vivo
# Details in all cases: Table I, 4 WAT
# Barnyardgrass = system: Barnyardgrass
# Source text: (§1) A good grade of top soil is placed in aluminum pans having holes in the bottom and compacted to a depth of 0.95 to 1.27 cm. from the top of the pan. A predetermined number of seeds of each of several dicotyledonous and monocotyledonous annual plant species and/or vegetative propagules for the perennial plant species are placed on the soil and pressed into the soil surface. The seeds and/or vegetative propagules are covered with soil and leveled. The pans are then placed on a sand bench in the greenhouse and watered from below as needed. After the plants reach the desired age (two to three weeks), each pan except for the control pans is removed individually to a spraying chamber and sprayed by means of an atomizer operating at a positive air pressure of approximately 1.46 kg/cm^2 absolute. The atomizer contains 6 ml. of a solution or suspension of the chemical. In that 6 ml., is an amount of a cyclohexanone emulsifying agent mixture to give a spray solution or suspension which contains about 0.4% by weight of the emulsifier. The spray solution or suspension contains a sufficient amount of the candidate chemical in order to give application rates corresponding to those set forth in the tables. The spray solution is prepared by taking an aliquot of a 1.0% by weight stock solution or suspension of the candidate chemical in an organic solvent such as acetone or tetrahydrofuran or in water. The emulsifying agent employed is a mixture comprising 35 weight percent butylamine dodecylbenzene sulfonate and 65 weight percent of a tall oil ethylene oxide condensate having about 11 moles of ethylene oxide per mole of tall oil. The pans are returned to the greenhouse and watered as before and the injury to the plants as compared to the control is observed at approximately two and four weeks as indicated in the tables under WAT and the results recorded. In some instances, the two-week observations are omitted.
# (§2) The post-emergence herbicidal activity index used in Table I is as follows:
# (§3) The plant species utilized in these tests are identified by letter in accordance with the following legend: […]
# Cocklebur = system: Cocklebur
# Source text: as §1, §2, §3
# Downy Brome = system: Downy Brome
# Source text: as §1, §2, §3
# Johnsongrass = system: Johnsongrass
# Source text: as §1, §2, §3
# Lambsquarters = system: Lambsquarters
# Source text: as §1, §2, §3
# Morningglory = system: Morningglory
# Source text: as §1, §2, §3
# Quackgrass = system: Quackgrass
# Source text: as §1, §2, §3
# Velvetleaf = system: Velvetleaf
# Source text: as §1, §2, §3
# Yellow Nutsedge = system: Yellow Nutsedge
# Source text: as §1, §2, §3
compound,measurement,setting,value
CCOC(=O)CN(CP(=O)(Oc1ccc(Cl)c(C)c1)Oc1ccc(Cl)c(C)c1)SSc1ccc(OC)cc1 [VII],post-emergence herbicidal activity index,Barnyardgrass; 5.6 kg/h,3 (75-99% control)
same,post-emergence herbicidal activity index,Barnyardgrass; 11.2 kg/h,3 (75-99% control)
same,post-emergence herbicidal activity index,Cocklebur; 5.6 kg/h,1 (25-49% control)
same,post-emergence herbicidal activity index,Cocklebur; 11.2 kg/h,2 (50-74% control)
same,post-emergence herbicidal activity index,Downy Brome; 5.6 kg/h,2 (50-74% control)
same,post-emergence herbicidal activity index,Downy Brome; 11.2 kg/h,2 (50-74% control)
same,post-emergence herbicidal activity index,Johnsongrass; 5.6 kg/h,3 (75-99% control)
same,post-emergence herbicidal activity index,Johnsongrass; 11.2 kg/h,2 (50-74% control)
same,post-emergence herbicidal activity index,Lambsquarters; 5.6 kg/h,2 (50-74% control)
same,post-emergence herbicidal activity index,Lambsquarters; 11.2 kg/h,2 (50-74% control)
same,post-emergence herbicidal activity index,Morningglory; 5.6 kg/h,1 (25-49% control)
same,post-emergence herbicidal activity index,Morningglory; 11.2 kg/h,1 (25-49% control)
same,post-emergence herbicidal activity index,Quackgrass; 5.6 kg/h,1 (25-49% control)
same,post-emergence herbicidal activity index,Quackgrass; 11.2 kg/h,1 (25-49% control)
same,post-emergence herbicidal activity index,Velvetleaf; 5.6 kg/h,1 (25-49% control)
same,post-emergence herbicidal activity index,Velvetleaf; 11.2 kg/h,1 (25-49% control)
same,post-emergence herbicidal activity index,Yellow Nutsedge; 5.6 kg/h,2 (50-74% control)
same,post-emergence herbicidal activity index,Yellow Nutsedge; 11.2 kg/h,1 (25-49% control)
